Test results reported in patent publication US20150132342A1, “NOVEL IMMUNE ACTIVATORS: SUBSTITUTE 4-AMINOQUINAZOLINES” (The Regents of the University of California, priority 2013, published 2015).

Key:
Type in all cases: cell-based
TLR4/MD-2/CD14 = target: T1, TLR4/MD-2/CD14 (Homo sapiens, UniProt O00206+Q9Y6Y9); test: hTLR4 HEK Blue reporter cells, NF-κB SEAP secretion (QuantiBlue OD630); details: for hTLR4 0.5 μM: Quantiblue OD630 of hTLR4 HEK Blue cells, normalized to LPS positive control=100; for Activity relative to compound 1a (SAR in words): TLR4 reporter cells and hPBMC
T1 construct: host or cells: HEK293 (HEK Blue hTLR4)
T1 sequence (O00206 24-839): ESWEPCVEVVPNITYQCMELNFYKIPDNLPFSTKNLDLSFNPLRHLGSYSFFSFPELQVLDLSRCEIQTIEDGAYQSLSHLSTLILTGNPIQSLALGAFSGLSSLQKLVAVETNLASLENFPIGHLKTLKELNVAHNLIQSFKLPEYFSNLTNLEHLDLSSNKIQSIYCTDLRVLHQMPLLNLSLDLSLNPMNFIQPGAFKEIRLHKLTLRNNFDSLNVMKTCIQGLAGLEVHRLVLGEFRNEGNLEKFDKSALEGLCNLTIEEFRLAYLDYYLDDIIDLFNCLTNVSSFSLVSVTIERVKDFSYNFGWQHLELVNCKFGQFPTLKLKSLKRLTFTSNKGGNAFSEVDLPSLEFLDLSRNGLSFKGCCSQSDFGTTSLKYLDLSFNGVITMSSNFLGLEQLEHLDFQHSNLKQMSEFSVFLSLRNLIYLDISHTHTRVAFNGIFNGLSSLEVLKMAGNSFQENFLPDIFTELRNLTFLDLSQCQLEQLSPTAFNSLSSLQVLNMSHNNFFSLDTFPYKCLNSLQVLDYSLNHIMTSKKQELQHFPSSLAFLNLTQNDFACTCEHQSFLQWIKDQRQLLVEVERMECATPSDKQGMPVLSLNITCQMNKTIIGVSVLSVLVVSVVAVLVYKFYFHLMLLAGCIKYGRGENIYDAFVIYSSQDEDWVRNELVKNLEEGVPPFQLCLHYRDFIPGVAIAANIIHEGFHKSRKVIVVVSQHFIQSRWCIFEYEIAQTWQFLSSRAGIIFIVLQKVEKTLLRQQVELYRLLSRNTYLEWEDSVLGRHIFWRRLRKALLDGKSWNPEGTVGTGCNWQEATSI
T1 sequence (Q9Y6Y9 19-160): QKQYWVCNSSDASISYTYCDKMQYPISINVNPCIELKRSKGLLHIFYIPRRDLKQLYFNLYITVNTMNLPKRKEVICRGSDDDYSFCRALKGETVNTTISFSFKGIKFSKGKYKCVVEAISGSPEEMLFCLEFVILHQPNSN
Description: In vitro assays using TLR reporter cell lines. Murine or humanTLR4 HEK Blue™ cells (Invivogen, 2.5×10^4 cells per well of a 96 well plate), or NF-κB/SEAPorter™ HEK 293 cells (Imgenex, San Diego, Calif.) for human TLR2, TLR3, TLR5, TLR7, TLR8, or TLR9 (5×10^4 cells per well of 96 well plate) were incubated with graded doses of the test compound. The culture supernatants were harvested after a 20-24 h incubation period. Secreted alkaline phosphatase (SEAP) activity in the supernatants was determined by a colorimetric assay, using either the SEAPorter Assay Kit (Imgenex, San Diego, Calif.), with absorbance read at 405 nm, or QuantiBlue (Invivogen), with absorbance read at 630 nm. In some experiments, graded concentrations of LPS-RS ([…], Invivogen) were used to test TLR4-specific binding of the hit compound.

human PBMC = test: IL-8 release in human PBMC (ELISA); details: Homo sapiens, PBMC, 18 h; 0.5 μM; IL-8 release, normalized to LPS positive control=100
Description: In vitro activities in human peripheral blood mononuclear cells (PBMC). Human PBMC were isolated from buffy coats obtained from the San Diego Blood Bank (San Diego, Calif.) as described previously.^5,6 PBMC (1×10^6/mL) were incubated with various compounds in complete RPMI (Omega Scientific) for 18 h at 37° C., 5% CO2 and culture supernatants were collected. The levels of IL-8 in the supernatants were determined by ELISA (BD Biosciences).

HepG2 cells = test: MTT assay in HepG2 cells; details: compounds tested at 10 μM; normalized with OD570-650 of vehicle treatment; in % (unit assumed)
human TLR4/MD-2 = target: T2, human TLR4/MD-2 (Homo sapiens, UniProt O00206+Q9Y6Y9); test: BMDM from transgenic mice expressing human TLR4/MD-2 (IL-6, IP-10); details: BMDM from human TLR4/MD-2 transgenic mice deficient for murine TLR4/MD-2
T2 construct: expressed in transfected cells; host or cells: bone marrow derived macrophages of human TLR4 transgenic mice on a murine TLR4/MD-2 null C57BL/6 background (gift of Dr. L. Hajjar)
T2 sequence (O00206 24-839): as the sequence (O00206 24-839) above
T2 sequence (Q9Y6Y9 19-160): as the sequence (Q9Y6Y9 19-160) above
Excerpt: Animals. Seven to 9 week-old C57BL/6 (wild type, WT) and Cd14^−/− (C57BL/6 background) mice were purchased from the Jackson Laboratories (Bar Harbor, Mass.). Tlr4^−/− mice (C57BL/6 background) were a gift from Dr. Shizuo Akira (Osaka University, Japan) and were backcrossed for 10 generations onto the C57BL/6 background at University of California, San Diego (UCSD). MD-2^−/− mice (C57BL/6 background) were originally generated by Dr. K. Miyake (University of Tokyo, Tokyo, Japan) and were kindly provided by Dr. L. Hajjar (University of Washington, Seattle, Wash.). Human TLR4 transgenic mice on murine TLR4/MD-2 null C57BL/6 background were kindly provided by Dr. L. Hajjar.^3 All animal experiments were approved by the UCSD Institutional Animal Care and Use Committee.
In vitro cytokine induction in bone marrow derived dendritic cells (BMDC) and macrophages (BMDM). […] The levels of IL-6 or IP-10 in the culture supernatants were determined by ELISA (BD Biosciences, La Jolla, Calif.).^5 Finally, all levels of cytokine release were normalized to those of LPSstimulation within each experiment, set at 100.

SMILES	hTLR4 0.5 μM (TLR4/MD-2/CD14)	IL-8 release (% of LPS control) at 0.5 µM (human PBMC) [%]	HepG2 MT (HepG2 cells)	Activity relative to compound 1a (SAR in words) (TLR4/MD-2/CD14)	Activation of transgenic human TLR4/MD-2 complex relative to mouse TLR4/MD-2 (human TLR4/MD-2)
CCOC(=O)c1nc(Nc2cc(Oc3ccc(C)cc3)cc([N+](=O)[O-])c2)c2ccccc2n1 [Compound 1d, Ethyl 4-((3-nitro-5-(p-tolyloxy)phenyl)amino)quinazoline-2-carboxylate]	0.5	0.4	108.8		
CC(C)OC(=O)c1nc(Nc2cc(Oc3ccccc3)cc([N+](=O)[O-])c2)c2ccccc2n1 [Compound 11a, Isopropyl 4-((3-nitro-5-phenoxyphenyl)amino)quinazoline-2-carboxylate]	7.4	2.1	65.6		
CCNC(=O)c1nc(Nc2cc(Oc3ccccc3)cc([N+](=O)[O-])c2)c2ccccc2n1 [Compound 8a, N-Ethyl-4-((3-nitro-5-phenoxyphenyl)amino)quinazoline-2-carboxamide]	2.2	1.5	107.4		
CCOC(=O)c1nc(Nc2cc(N)cc(Oc3ccccc3)c2)c2ccccc2n1 [Compound 5a, Ethyl 4-((3-amino-5-phenoxyphenyl)amino)quinazoline-2-carboxylate]	0.6	0.3	106.1	complete loss of activity	
CC(C)CCOC(=O)c1nc(Nc2cc(Oc3ccccc3)cc([N+](=O)[O-])c2)c2ccccc2n1 [Compound 12a, Isopentyl 4-((3-nitro-5-phenoxyphenyl)amino)quinazoline-2-carboxylate]	8.4	2.2	63.4		
CCOC(=O)c1nc(Nc2cc(Oc3ccccc3I)cc([N+](=O)[O-])c2)c2ccccc2n1 [Compound 1h, Ethyl 4-((3-(2-iodophenoxy)-5-nitrophenyl)amino)quinazoline-2-carboxylate]	65.5	34.2	93.8	enhanced	
CCOC(=O)c1nc(Nc2cc(Oc3cccc(C)c3)cc([N+](=O)[O-])c2)c2ccccc2n1 [Compound 1c, Ethyl 4-((3-nitro-5-(m-tolyloxy)phenyl)amino)quinazoline-2-carboxylate]	14.5	5.8	109.9		
CCOC(=O)c1nc(Nc2cc(Oc3ccccc3Br)cc([N+](=O)[O-])c2)c2ccccc2n1 [Compound 1g, Ethyl 4-((3-(2-bromophenoxy)-5-nitrophenyl)amino)quinazoline-2-carboxylate]	79.0	35.6	90.8	enhanced	to a greater extent
CCOC(=O)c1nc(Nc2cc(Oc3ccccc3CC)cc([N+](=O)[O-])c2)c2ccccc2n1 [Compound 1e, Ethyl 4-((3-(2-ethylphenoxy)-5-nitrophenyl)amino)quinazoline-2-carboxylate]	4.2	3.2	98.9	substantial loss of activity	
CCOC(=O)c1nc(Nc2cc(Oc3ccccc3Cl)cc([N+](=O)[O-])c2)c2ccccc2n1 [Compound 1f, Ethyl 4-((3-(2-chlorophenoxy)-5-nitrophenyl)amino)quinazoline-2-carboxylate]	73.9	27.3	107.4	enhanced	
O=C(O)c1nc(Nc2cc(Oc3ccccc3)cc([N+](=O)[O-])c2)c2ccccc2n1 [Compound 7a, 4-((3-Nitro-5-phenoxyphenyl)amino)quinazoline-2-carboxylic acid]	0.6	0.5	84.5		
CCOC(=O)c1nc(Nc2cc(Oc3ccccc3C)cc([N+](=O)[O-])c2)c2ccccc2n1 [Compound 1b, Ethyl 4-((3-nitro-5-(o-tolyloxy)phenyl)amino)quinazoline-2-carboxylate]	45.5	20.5	96.7	enhanced	
CCOC(=O)c1nc(Nc2cc(Oc3c(C)cccc3C)cc([N+](=O)[O-])c2)c2ccccc2n1 [Compound 1j, Ethyl 4-((3-(2,6-dimethylphenoxy)-5-nitrophenyl)amino)quinazoline-2-carboxylate]	0.6	0	106.3		
Nc1cc(Nc2nc(C(=O)O)nc3ccccc23)cc(Oc2ccccc2)c1 [Compound 6a, 4-((3-Amino-5-phenoxyphenyl)amino)quinazoline-2-carboxylic acid]	1.1	0.3	105.0		
NC(=O)c1nc(Nc2cc(Oc3ccccc3)cc([N+](=O)[O-])c2)c2ccccc2n1 [Compound 9a, 4-((3-nitro-5-phenoxyphenyl)amino)quinazoline-2-carboxamide]	0.0	0.3	78.4		
CCOC(=O)c1nc(Nc2cc(Oc3ccc4ccccc4c3)cc([N+](=O)[O-])c2)c2ccccc2n1 [Compound 1k, Ethyl 4-((3-(naphthalen-2-yloxy)-5-nitrophenyl)amino)quinazoline-2-carboxylate]	0.8	0	111.4	loss of activity	
CCOC(=O)c1nc(Nc2cc(Oc3ccccc3C(F)(F)F)cc([N+](=O)[O-])c2)c2ccccc2n1 [Compound 1i, Ethyl 4-((3-nitro-5-(2-(trifluoromethyl)phenoxy)phenyl)amino)quinazoline-2-carboxylate]	58.7	26.5	67.1		
O=C(O)c1nc(Nc2cc(Oc3ccccc3Br)cc([N+](=O)[O-])c2)c2ccccc2n1 [Compound 7g, 4-((3-(2-Bromophenoxy)-5-nitrophenyl)amino)quinazoline-2-carboxylic acid]	1.6	0	96.3		
CC(C)OC(=O)c1nc(Nc2cc(Oc3ccccc3Br)cc([N+](=O)[O-])c2)c2ccccc2n1 [Compound 13g, Isopropyl 4-((3-(2-bromophenoxy)-5-nitrophenyl)amino)quinazoline-2-carboxylate]	67.8	19.2	106.5		
COC(=O)c1nc(Nc2cc(Oc3ccccc3)cc([N+](=O)[O-])c2)c2ccccc2n1 [Compound 10a, Methyl 4-((3-nitro-5-phenoxyphenyl)amino)quinazoline-2-carboxylate]	0.4	0.2	116.4		
